Measured values published in PubChem BioAssay AID1259408 (Genetic Toxicology Data Bank (GENE-TOX), 2018).
Activity calls are given as the source filed them. How the calls were made is not given here.

Tested on: GENE-TOX genotoxicity assays, various organisms and cells
Assay: GENE-TOX mutagenicity studies
Settings: for call: Assay Type: In vivo carcinogenicity studies
[1] = Species/Cell Type: Escherichia coli polA (W3119 vs P3478), Assay Type: Rec-assay, DNA effects (bacterial DNA repair), Assay Code: RE1+, Evaluation Type: Evaluation A (Pre-1980)
[2] = Species/Cell Type: Mammalian polychromatic erythrocytes, Assay Type: Micronucleus test, chromosome aberrations, Assay Code: MNTT, Evaluation Type: Evaluation B (Post-1980)
[3] = Species/Cell Type: Mouse, Sex: Male, Assay Type: Sperm morphology, Assay Code: SPI-, Evaluation Type: Evaluation A (Pre-1980)
[4] = Species/Cell Type: Nonhuman, Assay Code: CCGT, Evaluation Type: Evaluation A (Pre-1980)
[5] = Species/Cell Type: Salmonella typhimurium (one or more of the five standard strains: TA98, TA100, TA1535, TA1537, and TA1538), Assay Type: Histidine reverse gene mutation, Ames assay, Assay Code: SAL-, Evaluation Type: Evaluation A (Pre-1980)
[6] = Species/Cell Type: Syrian hamster embryo (SHE) cells, Assay Type: Cell transformation, clonal assay, Assay Code: CTC-, Evaluation Type: Evaluation A (Pre-1980)
[7] = Species/Cell Type: Human, Assay Type: Sister-chromatid exchange (SCE) in vitro, Assay Code: SC1+D, Dose Response: With dose response, Evaluation Type: Evaluation B (Post-1980)
[8] = Species/Cell Type: Nonhuman, Assay Type: Sister-chromatid exchange (SCE) in vitro, Assay Code: SC2+D, Dose Response: With dose response, Evaluation Type: Evaluation B (Post-1980)
[9] = Species/Cell Type: Salmonella typhimurium (one or more of the five standard strains: TA98, TA100, TA1535, TA1537, and TA1538), Assay Type: Histidine reverse gene mutation, Ames assay, Assay Code: SAL+, Evaluation Type: Evaluation A (Pre-1980)
[10] = Species/Cell Type: Fischer rat embryo (RLV/1706) cells, Assay Type: Cell transformation, viral enhanced, Assay Code: CTR-, Evaluation Type: Evaluation A (Pre-1980)
[11] = Species/Cell Type: Human, Assay Type: Sister-chromatid exchange (SCE) in vitro, Assay Code: SC1T, Evaluation Type: Evaluation B (Post-1980)
[12] = Species/Cell Type: Nonhuman, Assay Type: Sister-chromatid exchange (SCE) in vitro, Assay Code: SC2T, Evaluation Type: Evaluation B (Post-1980)
[13] = Species/Cell Type: Salmonella typhimurium (one or more of the five standard strains: TA98, TA100, TA1535, TA1537, and TA1538), Assay Type: Histidine reverse gene mutation, Ames assay, Assay Code: SALT, Evaluation Type: Evaluation A (Pre-1980)
[14] = Species/Cell Type: Nonhuman, Assay Code: CCG+, Evaluation Type: Evaluation A (Pre-1980)

Q: How did the mutagenic call (Species/Cell Type: Allium cepa, Assay Type: Chromosome aberrations, Assay Code: ALCT, Evaluation Type: Evaluation A (Pre-1980)) turn out when `Nc1ccccc1` was run?
A: no conclusion

Q: And the mutagenic call (Species/Cell Type: Escherichia coli polA (W3110 vs P3478), Assay Type: Rec-assay, DNA effects (bacterial DNA repair), Assay Code: RE2-, Evaluation Type: Evaluation A (Pre-1980))?
A: inactive; negative

Q: What about the mutagenic call [1] of the same compound?
A: active; positive

Q: What about the mutagenic call (Species/Cell Type: Fischer rat embryo (RLV/1706) cells, Assay Type: Cell transformation, viral enhanced, Assay Code: CTR+, Evaluation Type: Evaluation A (Pre-1980)) of the same compound?
A: active; positive

Q: What about the mutagenic call (Species/Cell Type: Human lymphocytes, Assay Type: Sister-chromatid exchange (SCE) in vitro, Assay Code: SCL+, Evaluation Type: Evaluation B (Post-1980)) of the same compound?
A: active; positive

Q: And the mutagenic call (Species/Cell Type: Human, Assay Type: Sister-chromatid exchange (SCE) in vitro, Assay Code: SC1+, Evaluation Type: Evaluation B (Post-1980))?
A: active; positive

Q: What about the mutagenic call [2] of the same compound?
A: no conclusion

Q: What about the mutagenic call (Species/Cell Type: Mouse (BALB/c-3T3) cells, Assay Type: Cell transformation, Assay Code: CTB+D, Dose Response: With dose response, Evaluation Type: Evaluation A (Pre-1980)) of the same compound?
A: active; positive

Q: What about the mutagenic call [3] of the same compound?
A: inactive; negative

Q: And the call (Species/Cell Type: Nonhuman, Assay Code: CCG+L, Evaluation Type: Evaluation A (Pre-1980))?
A: active; positive

Q: And the call [4]?
A: no conclusion

Q: And the mutagenic call (Species/Cell Type: Nonhuman, Assay Type: Sister-chromatid exchange (SCE) in vitro, Assay Code: SC2+D, Dose Response: With dose response, Evaluation Type: Evaluation A (Pre-1980))?
A: active; positive

Q: And the mutagenic call (Species/Cell Type: Nonhuman, Assay Type: Sister-chromatid exchange (SCE) in vivo, Assay Code: SC3+D, Dose Response: With dose response, Evaluation Type: Evaluation B (Post-1980))?
A: active; positive

Q: What about the mutagenic call (Species/Cell Type: Saccharomyces cerevisiae, Assay Type: Mitotic recombination or gene conversion, Assay Code: YEH-, Evaluation Type: Evaluation A (Pre-1980)) of the same compound?
A: inactive; negative

Q: What about the mutagenic call [5] of the same compound?
A: inactive; negative

Q: And the mutagenic call [6]?
A: inactive; negative

Q: How did the mutagenic call (Species/Cell Type: Chinese hamster lung (V79) cells, Assay Type: Forward gene mutation at the HPRT or ouabain locus, Assay Code: V79+, Evaluation Type: Evaluation A (Pre-1980)) turn out when `c1ccc2c(c1)cc1c3c2ccc2cccc(c23)C2OC12` (stereo unspecified) was run?
A: active; positive

Q: And the mutagenic call (Species/Cell Type: Human diploid fibroblasts, Assay Type: Unscheduled DNA synthesis (UDS) in vitro, DNA effects, Assay Code: UDH+, Evaluation Type: Evaluation A (Pre-1980))?
A: active; positive

Q: And the mutagenic call [7]?
A: active; positive

Q: What about the mutagenic call (Species/Cell Type: Mouse prostate cells, Assay Type: Cell transformation, Assay Code: CTM+, Evaluation Type: Evaluation A (Pre-1980)) of the same compound?
A: active; positive

Q: What about the call [4] of the same compound?
A: no conclusion

Q: What about the mutagenic call [8] of the same compound?
A: active; positive

Q: What about the mutagenic call (Species/Cell Type: Saccharomyces cerevisiae, Assay Type: Mitotic recombination or gene conversion, Assay Code: YEH+, Evaluation Type: Evaluation A (Pre-1980)) of the same compound?
A: active; positive

Q: What about the mutagenic call [9] of the same compound?
A: active; positive

Q: And the mutagenic call (Species/Cell Type: Syrian hamster embryo (SHE) cells, Assay Type: Cell transformation, clonal assay, Assay Code: CTC+, Evaluation Type: Evaluation A (Pre-1980))?
A: active; positive

Q: Which mutagenic call (Species/Cell Type: Chinese hamster lung (V79) cells, Assay Type: Forward gene mutation at the HPRT or ouabain locus, Assay Code: V79-*, Activation: With metabolic activation, Evaluation Type: Evaluation A (Pre-1980)) does the source give for `Cc1c2ccccc2c(C)c2c1ccc1ccc(F)cc12` here?
A: inactive; negative

Q: Which mutagenic call (Species/Cell Type: Drosophila melanogaster, Assay Type: Sex-linked recessive lethal gene mutation, Assay Code: SRLT, Evaluation Type: Evaluation A (Pre-1980)) does the source give for `c1ccc2c(c1)ccc1nc3c(ccc4ccccc43)nc12` here?
A: no conclusion

Q: What does the source list for `CC(C)=O`?
A: mutagenic call (Species/Cell Type: Arabidopsis species, Assay Type: Gene mutation, Assay Code: ARM-, Evaluation Type: Evaluation A (Pre-1980)): inactive; negative; mutagenic call [10]: inactive; negative; mutagenic call [11]: no conclusion; mutagenic call (Species/Cell Type: Mammalian polychromatic erythrocytes, Assay Type: Micronucleus test, chromosome aberrations, Assay Code: MNT-, Evaluation Type: Evaluation B (Post-1980)): inactive; negative; mutagenic call (Species/Cell Type: Mouse embryo (AKR/ME) cells, Assay Type: Cell transformation, Assay Code: CTK-, Evaluation Type: Evaluation A (Pre-1980)): inactive; negative; mutagenic call (Species/Cell Type: Nonhuman, Assay Type: Chromosome aberrations in vitro, Assay Code: CY&-, Evaluation Type: Evaluation A (Pre-1980)): inactive; negative; mutagenic call (Species/Cell Type: Nonhuman, Assay Type: Sister-chromatid exchange (SCE) in vitro, Assay Code: SC2-, Evaluation Type: Evaluation A (Pre-1980)): inactive; negative; mutagenic call [5]: inactive; negative; mutagenic call [6]: inactive; negative

Q: `Cc1cc(C)c(S(=O)(=O)O)cc1N=Nc1cc(S(=O)(=O)O)c2ccccc2c1O` was tested. Which mutagenic call (Species/Cell Type: Bacillus subtilis (H17 vs M45), Assay Type: Rec-assay, spot test, DNA effects (bacterial DNA repair), Assay Code: REWT, Evaluation Type: Evaluation A (Pre-1980)) did it give?
A: no conclusion

Q: And the mutagenic call (Species/Cell Type: Bacillus subtilis (H17 vs M45T), Assay Type: Rec-assay, spot test, DNA effects (bacterial DNA repair), Assay Code: REXT, Evaluation Type: Evaluation A (Pre-1980))?
A: no conclusion

Q: What about the mutagenic call [5] of the same compound?
A: inactive; negative

Q: How did the mutagenic call [12] turn out when `c1cncc(C2=NCCC2)c1` was run?
A: no conclusion

Q: `CCCCCCCCCCCCCCCC(=O)OC/C=C(C)/C=C/C=C(C)/C=C/C1=C(C)CCCC1(C)C` was tested. Which mutagenic call (Species/Cell Type: Human, Assay Type: Sister-chromatid exchange (SCE) in vitro, Assay Code: SC1+D, Dose Response: With dose response, Evaluation Type: Evaluation A (Pre-1980)) did it give?
A: active; positive

Q: `CC(=O)OCCCCCCBr` was tested. Which mutagenic call [2] did it give?
A: no conclusion

Q: With `C/C=C/C=C/C#C/C=C/C=C/CCCCCOC(C)=O` as the compound, how does the mutagenic call [12] read?
A: no conclusion

Q: With `CCCCCc1cc(O)c2c(c1)OC(C)(C)[C@@H]1CC=C(C)C[C@@H]21` as the compound, how does the mutagenic call [10] read?
A: inactive; negative

Q: And the mutagenic call (Species/Cell Type: Human lymphocytes, Assay Type: Micronucleus test in vitro, chromosome aberrations, Assay Code: MN7+, Evaluation Type: Evaluation A (Pre-1980))?
A: active; positive

Q: How did the mutagenic call [13] turn out when `C#CC(O)(c1ccccc1)c1ccccc1` was run?
A: no conclusion

Q: How did the call [14] turn out when `ClCOCCl` was run?
A: active; positive

Q: `NOS(=O)(=O)O` was tested. Which mutagenic call [1] did it give?
A: active; positive

Q: With `O=C1C=Cc2ccc3c4c(ccc1c24)-c1ccccc1C3=O` as the compound, how does the mutagenic call (Species/Cell Type: Chinese hamster lung (V79) cells, Assay Type: Forward gene mutation at the HPRT or ouabain locus, Assay Code: V79-, Evaluation Type: Evaluation A (Pre-1980)) read?
A: inactive; negative

Q: What about the call [4] of the same compound?
A: no conclusion

Q: And the mutagenic call [13]?
A: no conclusion

Q: Which mutagenic call [7] does the source give for `COC(=O)/C=C(\C)OP(=O)(OC)OC` here?
A: active; positive

Q: What about the mutagenic call (Species/Cell Type: Tradescantia species, Assay Type: Chromosome aberrations, Assay Code: TRC+, Evaluation Type: Evaluation A (Pre-1980)) of the same compound?
A: active; positive

Q: And the mutagenic call (Species/Cell Type: Vicia faba, Assay Type: Chromosome aberrations, Assay Code: VIC+, Evaluation Type: Evaluation A (Pre-1980))?
A: active; positive

Q: For `CC(=O)[O-].CC(=O)[O-].CC(=O)[O-].CC(=O)[O-].[Pb+2]`, which call [14] is on record?
A: active; positive

Q: Which results are given for `O=C1CN(/N=C/c2ccc([N+](=O)[O-])o2)C(=O)N1`?
A: mutagenic call (Species/Cell Type: Escherichia coli WP2, Assay Type: Tryptophan reverse gene mutation, Assay Code: WP2+, Evaluation Type: Evaluation A (Pre-1980)): active; positive; mutagenic call (Species/Cell Type: Escherichia coli WP2 UVRA, Assay Type: Tryptophan reverse gene mutation, Assay Code: WPU+D, Dose Response: With dose response, Evaluation Type: Evaluation A (Pre-1980)): active; positive; mutagenic call (Species/Cell Type: Human diploid fibroblasts, Assay Type: Unscheduled DNA synthesis (UDS) in vitro, DNA effects, Assay Code: UDH-, Evaluation Type: Evaluation A (Pre-1980)): inactive; negative; mutagenic call [11]: no conclusion; mutagenic call (Species/Cell Type: Human, Sex: Male, Assay Type: Sperm morphology, Assay Code: SPHT, Evaluation Type: Evaluation A (Pre-1980)): no conclusion; mutagenic call (Species/Cell Type: Mammalian polychromatic erythrocytes, Assay Type: Micronucleus test, chromosome aberrations, Assay Code: MNT+, Evaluation Type: Evaluation A (Pre-1980)): active; positive; mutagenic call [3]: inactive; negative; call [4]: no conclusion; mutagenic call [8]: active; positive; mutagenic call (Species/Cell Type: Nonhuman, Assay Type: Sister-chromatid exchange (SCE) in vivo, Assay Code: SC3+, Evaluation Type: Evaluation B (Post-1980)): active; positive; mutagenic call (Species/Cell Type: Rodents, Sex: Male, Assay Type: Dominant lethal test, Assay Code: DLT-, Evaluation Type: Evaluation A (Pre-1980)): inactive; negative; mutagenic call (Species/Cell Type: Saccharomyces cerevisiae, Assay Type: Forward and reverse gene mutation, mitotic recombination and gene conversion, host-mediated assay, Assay Code: HME+, Evaluation Type: Evaluation A (Pre-1980)): active; positive; mutagenic call (Species/Cell Type: Saccharomyces cerevisiae, Assay Type: Mitotic recombination or gene conversion, Assay Code: YEC+*, Activation: With metabolic activation, Evaluation Type: Evaluation A (Pre-1980)): active; positive; mutagenic call [9]: active; positive; mutagenic call (Species/Cell Type: Salmonella typhimurium and Saccharomyces cerevisiae, Assay Type: Forward and reverse gene mutation, mitotic recombination and gene conversion, DNA effects, body fluid assay, Assay Code: BFG+, Evaluation Type: Evaluation A (Pre-1980)): active; positive

Q: How did the mutagenic call [2] turn out when `CC(C)NCC(O)c1ccc(NS(C)(=O)=O)cc1` (stereo unspecified) was run?
A: no conclusion
